One test concerns the target T1, rhAOC1 (Homo sapiens, UniProt P19801).
T1 construct: purchased R&D
T1 sequence (P19801 20-751): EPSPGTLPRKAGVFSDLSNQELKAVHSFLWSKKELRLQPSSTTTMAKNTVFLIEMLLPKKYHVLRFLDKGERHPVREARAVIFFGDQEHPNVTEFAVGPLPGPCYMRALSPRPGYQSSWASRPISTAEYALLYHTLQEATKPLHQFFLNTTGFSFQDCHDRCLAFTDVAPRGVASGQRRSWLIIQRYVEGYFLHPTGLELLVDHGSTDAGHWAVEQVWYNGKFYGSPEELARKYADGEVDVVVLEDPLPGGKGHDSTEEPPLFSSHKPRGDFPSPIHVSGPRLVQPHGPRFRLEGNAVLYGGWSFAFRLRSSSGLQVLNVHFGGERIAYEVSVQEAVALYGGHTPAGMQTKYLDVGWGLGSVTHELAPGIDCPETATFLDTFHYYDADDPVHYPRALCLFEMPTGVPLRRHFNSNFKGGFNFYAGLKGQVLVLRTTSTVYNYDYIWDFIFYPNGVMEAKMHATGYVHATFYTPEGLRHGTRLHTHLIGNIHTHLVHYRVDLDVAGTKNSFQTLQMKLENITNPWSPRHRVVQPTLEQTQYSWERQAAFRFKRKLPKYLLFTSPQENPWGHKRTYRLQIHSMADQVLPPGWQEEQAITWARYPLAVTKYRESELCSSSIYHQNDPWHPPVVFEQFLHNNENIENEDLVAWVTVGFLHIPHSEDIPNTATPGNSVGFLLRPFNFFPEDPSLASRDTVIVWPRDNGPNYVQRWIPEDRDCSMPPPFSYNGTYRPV
Kind of test: Selectivity against rhAOC1 enzyme (Biological Example 2). The test is classed as biochemical. The following applies: Table 2; histamine substrate, Amplex Red/HRP. The protocol:
2. Selectivity of Compounds Against rhAOC1 Enzyme
(§1) (1) Instrument, Consumable and Reagent
Microplate reader (Perkin Elmer, Nivo 5S), black unclear-bottom 96-well plate (Corning) and rhAOC1 (R&D)
(§2) (2) Preparation of Concentration Gradient Compound Solutions
An appropriate amount of the compound to be tested was taken, dissolved in DMSO to 10 mM and then stored. Before the study, an appropriate amount of mother liquor of the 10 mM compound to be tested was taken and gradiently diluted 3-fold with DMSO, 10 concentration gradients in total. Each concentration gradient was then diluted 10-fold with 0.1 M of PBS.
(§3) (3) Preparation of Enzyme Solutions
An appropriate amount of rhAOC1 mother liquor with a concentration of 0.441 mg/mL was taken and diluted with an appropriate amount of 50 mM HEPES buffer solution to obtain enzyme solutions of 4× concentrations.
(§4) (4) Preparation of Substrate Mixtures of 2× Concentrations
An appropriate amount of histamine was weighed and dissolved with 50 mM of HEPES buffer solution to obtain 20 mM of histamine solution. The histamine solution was added with 2 mM of Amplex Red mother liquor and 500 U/mL of HRP mother liquor and diluted with 50 mM of HEPES buffer solution to obtain substrate mixtures of 2× concentrations.
10 μL compound solutions of different concentrations, 25 μL rhAOC1 enzyme solutions of 4× concentrations and 15 μL of 50 mM HEPES buffer solution were first added into a 96-well plate, shaken to be mixed uniformly and then incubated at 37° C. for 30 min. 50 μL substrate mixtures of 2× concentrations were then added into each well, and the microplate reader was immediately used to detect fluorescence intensity of each well with 580 nm (20 nm) exciting light and 620 nm (10 nm) emission light for 5 min each time, 30 min in total. The inhibition rate was calculated according to the following formula: V (RFU/min)=(Ft (RFU)−F0 (RFU))/(time(min)) Inhibition rate (%)=100%−Vcmpd (RFU/min)/Vmax (RFU/min)×100%
V: fluorescence change rate; Ft: fluorescence reading at time point t; F0: initial fluorescence reading; Time: duration t; Vcmpd: fluorescence change rate of tested compound; Vmax: Max hole fluorescence change rate.
(6) Fitting of Dose-Response Curve
(§5) With the log value of concentration as the X axis and the percent inhibition rate as the Y axis, the log (inhibitor) vs. response-variable slope of analysis software GraphPad Prism 5 was used to fit a dose-response curve, thus obtaining the IC50 value of activity of each compound against the enzyme.

For the next test, the target named is T2, MAO-A (Homo sapiens, UniProt P21397).
T2 construct: purchased Active Motif
T2 sequence (P21397 1-527): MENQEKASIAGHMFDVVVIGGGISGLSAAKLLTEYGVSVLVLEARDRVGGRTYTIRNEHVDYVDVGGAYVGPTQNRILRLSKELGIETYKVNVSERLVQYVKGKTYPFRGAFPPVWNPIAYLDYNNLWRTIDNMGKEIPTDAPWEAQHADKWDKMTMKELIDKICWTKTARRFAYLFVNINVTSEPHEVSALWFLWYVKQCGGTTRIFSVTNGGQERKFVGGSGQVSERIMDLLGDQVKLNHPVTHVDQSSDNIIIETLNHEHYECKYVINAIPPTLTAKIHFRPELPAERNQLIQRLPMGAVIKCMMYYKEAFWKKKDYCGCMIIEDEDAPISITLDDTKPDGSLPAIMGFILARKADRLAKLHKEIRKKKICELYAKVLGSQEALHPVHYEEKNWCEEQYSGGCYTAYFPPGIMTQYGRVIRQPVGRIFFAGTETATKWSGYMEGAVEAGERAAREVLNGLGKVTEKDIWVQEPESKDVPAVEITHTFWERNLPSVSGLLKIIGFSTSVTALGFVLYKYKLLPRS
Put plainly: Selectivity against MAO-A enzyme (MAO-Glo). The format is biochemical. As to the method:
as §1
Microplate reader (Perkin Elmer, EnVision), 384-well plate (Perkin Elmer), centrifuge (Eppendorf), MAO-Glo™ (Promega), MAO-A (Active Motif) and MAO-B (Active Motif).
as §2
An appropriate amount of the compound to be tested was taken, dissolved in DMSO to 10 mM and then stored. The solution was then gradiently diluted 4-fold with DMSO, 6 concentration gradients in total.
as §3
MAO-A/B mother liquor was diluted with the experimental buffer for MAO-A/B to obtain enzyme solutions of 2× concentrations.
as §4
The mother liquor of MAO-A/B substrate mixture was diluted with the experimental buffer for MAO-A/B to obtain substrate mixtures of 2× concentrations.
200 nL compound solutions or solvents of different concentrations and 10 μL MAO-A/B enzyme solutions of 2× concentrations were added into a 384-well plate, centrifuged at 1,000 rpm for 60 s, shaken to be mixed uniformly and then incubated at room temperature for 15 min. 10 μL substrate mixtures of 2× concentrations were then added into each well, and reaction was initiated. The 384-well plate was centrifuged at 1,000 rpm for 60 s, shaken for a uniform mixing and then incubated at room temperature for 60 min. 20 μL of test stop solution was added to stop reaction. Centrifugation was performed at 1,000 rpm for 60 s, and shaking was performed for uniform mixing. After 30 min of standing, the microplate reader was used to perform reading.
The inhibition rate was calculated according to the following formula: Inhibition rate (%)=(Signal_Max-Signal_sample)/(Signal_Max-Signal_min)×100 (6) Fitting of Dose-Response Curve
as §5

Counter-ions that a name gives are not always drawn. Where only a bound is given, the exact number is not on record here.

The IC50 is the point on the concentration scale where inhibition reaches its midpoint. Low readings indicate greater potency in that assay, high ones weaker potency in that assay.

Consider `CCN1CCc2nn(C/C(=C/F)CN)cc2C1=O` [Compound A6 hydrochloride, (E)-2-(2-(aminomethyl)-3-fluoroallyl)-5-ethyl-2,5,6,7-tetrahydro-4H-pyrazolo[4,3-c]pyridin-4-one], for which the figures for the IC50 against rhAOC1 and at MAO-A were 8.95 µM and 89.1 µM, respectively.

For `Cc1c2c(cn1C/C(=C/F)CN)C(=O)N(C1CC1)CC2` [Compound A35 hydrochloride, (E)-2-(2-(aminomethyl)-3-fluoroallyl)-5-cyclopropyl-1-methyl-2,5,6,7-tetrahydro-4H-pyrrolo[3,4-c]pyridin-4-one], the concentration for half-maximal inhibition (IC50) at rhAOC1 worked out at 7.03 µM; against MAO-A, 8.81 µM. In the case of `CCN1CCc2cn(C/C(=C/F)CN)cc2C1=O` [Compound A25, (E)-2-(2-(aminomethyl)-3-fluoroallyl)-5-ethyl-2,5,6,7-tetrahydro-4H-pyrrolo[3,4-c]pyridin-4-one], the IC50 against rhAOC1 was 11.5 µM; against MAO-A, above 100 µM. On to `CC(C)(C)N1CCc2nn(C/C(=C/F)CN)cc2C1=O` [Compound A7 hydrochloride, (E)-2-(2-(aminomethyl)-3-fluoroallyl)-5-tert-butyl-2,5,6,7-tetrahydro-4H-pyrazolo[4,3-c]pyridin-4-one], for which the IC50 against rhAOC1 is 50 µM; against MAO-A it was above 100 µM. For `NC/C(=C\F)Cn1cc2c(=O)n(C3CC3)ccc2n1` [Compound A41, (E)-2-(2-(aminomethyl)-3-fluoroallyl)-5-cyclopropyl-2,5-dihydro-4H-pyrazolo[4,3-c]pyridin-4-one], in that order: 9.65 µM and above 100 µM. For `CCn1ccc2nn(C/C(=C/F)CN)cc2c1=O` [Compound A28 hydrochloride, (E)-2-(2-(aminomethyl)-3-fluoroallyl)-5-ethyl-2,5-dihydro-4H-pyrazolo[4,3-c]pyridin-4-one], in that order: 4.06 µM and above 100 µM. On to `NC/C(=C\F)Cn1ncc2c1CCN(C1CC1)C2=O` [Compound A2 hydrochloride, (E)-1-(2-(aminomethyl)-3-fluoroallyl)-5-cyclopropyl-1,5,6,7-tetrahydro-4H-pyrazolo[4,3-c]pyridin-4-one], for which the 50% inhibitory concentration (IC50) against MAO-A is above 100 µM. As for `NC/C(=C\F)Cn1c(Br)c2c(c1Br)C(=O)N(C1CC1)CC2` [Compound A33 hydrochloride, (E)-2-(2-(aminomethyl)-3-fluoroallyl)-1,3-dibromo-5-cyclopropyl-2,5,6,7-tetrahydro-4H-pyrrolo[3,4-c]pyridin-4-one], the IC50 at rhAOC1 was above 100 µM; at MAO-A, 55.9 µM.

Turning to `Cl.NC/C(=C\F)Cn1cc2c(c1Br)CCN(C1CC1)C2=O` [Compound A32 hydrochloride, (E)-2-(2-(aminomethyl)-3-fluoroallyl)-1-bromo-5-cyclopropyl-2,5,6,7-tetrahydro-4H-pyrrolo[3,4-c]pyridin-4-one], the results for the IC50 on rhAOC1 and on MAO-A were 23.6 µM and 61 µM, respectively. For `CNC(=O)c1cnn(C/C(=C/F)CN)c1` [Compound B1, (E)-1-(2-(aminomethyl)-3-fluoroallyl)-N-methyl-1H-pyrazole-4-carboxamide], the results for the IC50 at rhAOC1 and on MAO-A were 3.18 µM and above 100 µM, respectively. For the compound `NC/C(=C\F)Cn1cc2c(c1)C(=O)N(C1CC1)CC2` [Compound A22, (E)-2-(2-(aminomethyl)-3-fluoroallyl)-5-cyclopropyl-2,5,6,7-tetrahydro-4H-pyrrolo[3,4-c]pyridin-4-one], the half-inhibitory concentration (IC50) against rhAOC1 is 14.8 µM; against MAO-A it was above 100 µM. For `CCn1ccc2c(cnn2C/C(=C/F)CN)c1=O` [Compound A29 hydrochloride, (E)-1-(2-(aminomethyl)-3-fluoroallyl)-5-ethyl-1,5-dihydro-4H-pyrazolo[4,3-c]pyridin-4-one], in that order: 0.674 µM and 87.7 µM. As to `Cl.NC/C(=C\F)Cn1cc2c(c1Cl)CCN(C1CC1)C2=O` [Compound A42 hydrochloride, (E)-2-(2-(aminomethyl)-3-fluoroallyl)-1-chloro-5-cyclopropyl-2,5,6,7-tetrahydro-4H-pyrrolo[3,4-c]pyridin-4-one], the IC50 at rhAOC1 is 28.9 µM; against MAO-A, 47.6 µM.
